The assay addresses Concanavaline A (Con A) (Canavalia ensiformis, UniProt P02866). In words: dextran-Con A binding (dissociation constant). The source says: The glyconanospheres of the present invention can contain dextran molecules (or could contain other polysaccharides) on their surface that interact strongly with carbohydrate binding proteins. These glyconanospheres can be used for real-time monitoring of protein carbohydrate interactions. The inventors in their studies of the present invention focused on lectins, which are sugar binding proteins. In particular the inventors worked with Concanavaline A (Con A) which binds glycosylic residues in carbohydrates with high affinity (the dissociation constant of dextran-Con A was found in studies of the present inventors to be about 1 nanomolar).

One substance from patent US7745001B2, “Synthesis of nanoassemblies containing luminescent quantum dots and magnetic nanoparticles” (University of New Orleans Research and Technology …, priority 2004, dated 2010) can be followed below.

For dextran, the Kd was ~1 nM.

Broadly, the Kd is the concentration at which binding is half-saturated. Low values mean higher affinity, high ones lower affinity.
